Experiments:
[1] = system: A/South Korea/90207/2020 WT virus (NA-H275, PA-I38); test: microbe, parasite or virus in culture; type: cell-based, influenza A(H1N1)pdm09 virus; conditions: Influenza A virus, MDCK, 24 h, read-out: EC50 nM ± SD (column headed IC50; footnote: EC50)
[2] = target: neuraminidase of A/South Korea/90207/2020 WT virus (NA-H275, PA-I38) (Influenza A virus (A(H1N1)pdm09), UniProt A0A0X9QTS2); type: biochemical

Row | Compound | EC50 [1] [nM] | IC50 [2] [nM]
1 | O=C1c2c(O)c(=O)ccn2N([C@@H]2c3ccccc3SCc3c2ccc(F)c3F)[C@@H]2COCCN12 [Baloxavir, Baloxavir acid] | 1 ± 0.2 | –
2 | CCC(CC)[C@H](NC(C)=O)[C@@H]1[C@H](O)[C@@H](C(=O)O)C[C@H]1N=C(N)N [Peramivir, peramivir] | – | 0.16
